Assay results from patent US6737383B1, “Herbicidal oxadiazolidines” (priority 1999, dated 2004).

Experiments:
purple nutsedge = assay: Test B pre/postemergence purple nutsedge; format: in vivo, Cyperus rotundus
In short: (§1)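 Response is a visual 0-to-10 score relative to untreated plants, where 0 means no effect and 10 means complete control, taken twelve to sixteen days after application. Treatments went onto soil at planting and onto foliage of 1- to 4-leaf plants, using a surfactant-containing non-phytotoxic solvent.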

morningglory = assay: Test B pre/postemergence morningglory; format: in vivo, Ipomoea hederacea
In short: as §1

pigweed = assay: Test B pre/postemergence pigweed; format: in vivo, Amaranthus retroflexus
In short: as §1

wild oat = assay: Test B pre/postemergence wild oat; format: in vivo, Avena fatua
In short: as §1

surinam grass = assay: Test B pre/postemergence surinam grass; format: in vivo, Brachiaria decumbens
In short: as §1

rice = assay: Test B flood test rice; format: in vivo, Oryza sativa
In short: (§2)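 Plants were grown to the 2-leaf stage before treatment with test chemical, then held in a greenhouse for twelve to sixteen days. Injury was visually rated against untreated controls on a 0–10 scale, where 0 is no effect and 10 is complete control.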

blackgrass = assay: Test B pre/postemergence blackgrass; format: in vivo, Alopecurus myosuroides
In short: as §1

smallflower flatsedge = assay: Test B flood test smallflower flatsedge; format: in vivo, Cyperus difformis
In short: as §2

bedstraw = assay: Test B pre/postemergence bedstraw; format: in vivo, Galium aparine
In short: as §1

rape = assay: Test B pre/postemergence rape; format: in vivo, Brassica napus
In short: as §1

velvetleaf = assay: Test B pre/postemergence velvetleaf; format: in vivo, Abutilon theophrasti
In short: as §1

bamyardgrass = assay: Test B flood test barnyardgrass; format: in vivo, Echinochloa crus-galli
In short: as §2

soybean = assay: Test B pre/postemergence soybean; format: in vivo, Glycine max
In short: as §1

corn = assay: Test B pre/postemergence corn; format: in vivo, Zea mays
In short: as §1

cocklebur = assay: Test B pre/postemergence cocklebur; format: in vivo, Xanthium strumarium
In short: as §1

sugar beet = assay: Test B pre/postemergence sugar beet; format: in vivo, Beta vulgaris
In short: as §1

[1] = Postemergence, Rate 62 g/ha, scale 0 to 10, 0 is no effect, 10 is complete control
[2] = Postemergence, Rate 250 g/ha, scale 0 to 10, 0 no effect, 10 complete control
[3] = Preemergence, Rate 31 g/ha, visual rating, scale 0 to 10 (0 no effect, 10 complete control)
[4] = Preemergence, Rate 62 g/ha, scale 0 to 10, 0 is no effect, 10 is complete control
[5] = Preemergence, Rate 125 g/ha, scale 0 to 10 (0 no effect, 10 complete control)
[6] = Preemergence, Rate 250 g/ha, scale of 0 to 10 where 0 is no effect and 10 is complete control
[7] = Rate 31 g/ha, Postemergence, scale 0 to 10
[8] = Rate 125 g/ha, Postemergence, scale 0 to 10, 0 no effect, 10 complete control
[9] = Rate 125 g/ha, Postemergence section (flood test species), scale 0 to 10, 0 no effect, 10 complete control
[10] = Rate 500 g/ha, Postemergence section of Table B, 0 to 10 scale (0 no effect, 10 complete control)
[11] = flood test, listed under Postemergence, Rate 250 g/ha, scale 0 to 10, 0 no effect, 10 complete control

CCN(C(=O)n1oc(=O)n(-c2ccc(C)cc2C)c1=O)C1CCCCC1 [Compound 26]
Nutsedge plant response rating (purple nutsedge; [1]): 0
Nutsedge plant response rating (purple nutsedge; [2]): 0
Nutsedge plant response rating (purple nutsedge; [3]): 0
Plant response rating, Nutsedge (purple nutsedge; [4]): 0
Plant response rating, Nutsedge (purple nutsedge; [5]): 0
Plant response rating, Nutsedge (purple nutsedge; [6]): 0
Nutsedge plant response rating (purple nutsedge; [7]): 0
Nutsedge plant response rating (purple nutsedge; [8]): 0
Morningglory plant response rating (morningglory; [1]): 1
Morningglory plant response rating (morningglory; [2]): 3
Morningglory plant response rating (morningglory; [3]): 0
Plant response rating, Morningglory (morningglory; [4]): 0
Plant response rating, Morningglory (morningglory; [5]): 0
Plant response rating, Morningglory (morningglory; [6]): 0
Morningglory plant response rating (morningglory; [7]): 0
Morningglory plant response rating (morningglory; [8]): 1
Redroot pigweed plant response rating (pigweed; [1]): 0
Redroot pigweed plant response rating (pigweed; [2]): 0
Redroot pigweed plant response rating (pigweed; [3]): 0
Plant response rating, Redroot pigweed (pigweed; [4]): 0
Plant response rating, Redroot pigweed (pigweed; [5]): 0
Plant response rating, Redroot pigweed (pigweed; [6]): 0
Redroot pigweed plant response rating (pigweed; [7]): 0
Redroot pigweed plant response rating (pigweed; [8]): 0
Wild oats plant response rating (wild oat; [1]): 0
Wild oats plant response rating (wild oat; [2]): 0
Wild oats plant response rating (wild oat; [3]): 0
Plant response rating, Wild oats (wild oat; [5]): 0
Plant response rating, Wild oats (wild oat; [6]): 0
Wild oats plant response rating (wild oat; [8]): 0
B. signalgrass plant response rating (surinam grass; [1]): 0
B. signalgrass plant response rating (surinam grass; [2]): 0
B. signalgrass plant response rating (surinam grass; [3]): 0
Plant response rating, B. signalgrass (surinam grass; [4]): 0
Plant response rating, B. signalgrass (surinam grass; [5]): 0
Plant response rating, B. signalgrass (surinam grass; [6]): 2
B. signalgrass plant response rating (surinam grass; [7]): 0
B. signalgrass plant response rating (surinam grass; [8]): 0
Rice plant response rating (rice; [1]): 0
Rice plant response rating (rice; [9]): 0
Rice plant response rating (rice; [10]): 0
Rice plant response rating (rice; [11]): 0
Blackgrass plant response rating (blackgrass; [1]): 0
Blackgrass plant response rating (blackgrass; [2]): 0
Blackgrass plant response rating (blackgrass; [3]): 0
Plant response rating, Blackgrass (blackgrass; [4]): 0
Plant response rating, Blackgrass (blackgrass; [5]): 0
Plant response rating, Blackgrass (blackgrass; [6]): 0
Blackgrass plant response rating (blackgrass; [7]): 0
Blackgrass plant response rating (blackgrass; [8]): 0
S. Flatsedge plant response rating (smallflower flatsedge; [1]): 0
S. Flatsedge plant response rating (smallflower flatsedge; [9]): 0
S. Flatsedge plant response rating (smallflower flatsedge; [11]): 0
Bedstraw plant response rating (bedstraw; [1]): 0
Bedstraw plant response rating (bedstraw; [2]): 0
Bedstraw plant response rating (bedstraw; [3]): 0
Plant response rating, Bedstraw (bedstraw; [4]): 0
Plant response rating, Bedstraw (bedstraw; [5]): 0
Plant response rating, Bedstraw (bedstraw; [6]): 0
Bedstraw plant response rating (bedstraw; [7]): 0
Bedstraw plant response rating (bedstraw; [8]): 0
Rape plant response rating (rape; [1]): 0
Rape plant response rating (rape; [2]): 0
Rape plant response rating (rape; [3]): 0
Plant response rating, Rape (rape; [4]): 0
Plant response rating, Rape (rape; [5]): 0
Plant response rating, Rape (rape; [6]): 0
Rape plant response rating (rape; [7]): 0
Rape plant response rating (rape; [8]): 0
Velvetleaf plant response rating (velvetleaf; [1]): 0
Velvetleaf plant response rating (velvetleaf; [2]): 0
Velvetleaf plant response rating (velvetleaf; [3]): 0
Plant response rating, Velvetleaf (velvetleaf; [4]): 0
Plant response rating, Velvetleaf (velvetleaf; [5]): 0
Plant response rating, Velvetleaf (velvetleaf; [6]): 0
Velvetleaf plant response rating (velvetleaf; [8]): 0
Barnyardgrass plant response rating (bamyardgrass; [1]): 0
Barnyardgrass plant response rating (bamyardgrass; [9]): 0
Barnyardgrass plant response rating (bamyardgrass; [10]): 0
Barnyardgrass plant response rating (bamyardgrass; [11]): 0
Soybean plant response rating (soybean; [1]): 1
Soybean plant response rating (soybean; [2]): 2
Soybean plant response rating (soybean; [3]): 0
Plant response rating, Soybean (soybean; [4]): 0
Plant response rating, Soybean (soybean; [5]): 0
Plant response rating, Soybean (soybean; [6]): 0
Soybean plant response rating (soybean; [8]): 1
Corn plant response rating (corn; [1]): 0
Corn plant response rating (corn; [2]): 0
Corn plant response rating (corn; [3]): 0
Plant response rating, Corn (corn; [4]): 0
Plant response rating, Corn (corn; [5]): 0
Plant response rating, Corn (corn; [6]): 0
Corn plant response rating (corn; [7]): 0
Corn plant response rating (corn; [8]): 0
Cocklebur plant response rating (cocklebur; [1]): 0
Cocklebur plant response rating (cocklebur; [2]): 0
Cocklebur plant response rating (cocklebur; [3]): 0
Plant response rating, Cocklebur (cocklebur; [4]): 0
Plant response rating, Cocklebur (cocklebur; [5]): 0
Plant response rating, Cocklebur (cocklebur; [6]): 0
Cocklebur plant response rating (cocklebur; [7]): 0
Cocklebur plant response rating (cocklebur; [8]): 0
Sugarbeets plant response rating (sugar beet; [1]): 0
Sugarbeets plant response rating (sugar beet; [2]): 0
Sugarbeets plant response rating (sugar beet; [3]): 0
Plant response rating, Sugarbeets (sugar beet; [4]): 0
Plant response rating, Sugarbeets (sugar beet; [5]): 0
Plant response rating, Sugarbeets (sugar beet; [6]): 0
Sugarbeets plant response rating (sugar beet; [8]): 0
